Numbers after ± are expanded uncertainties.
details: 293.15 K; 101.33 kPa; Liquid; Other PVT measurement

mass density [kg/m3]	Compound
790 ± 10	CCCC1CCCCC1 [1-cyclohexylpropane]
877 ± 10	c1ccccc1 [benzene]
778 ± 10	C1CCCCC1 [cyclohexane]
940 ± 10	c1ccc(C2CCCCC2)cc1 [cyclohexylbenzene]
753 ± 10	CCCCCCCCCCCC [dodecane]
773 ± 10	CCCCCCCCCCCCCCCC [hexadecane]
659 ± 10	CCCCCC [hexane]
810 ± 10	CCCCCCC1CCCCC1 [hexylcyclohexane]
718 ± 10	CCCCCCCCC [nonane]
767 ± 10	CCCCCCCCCCCCCC [tetradecane]

Compound	mass density [kg/m3]
C1CCC(C2CCCCC2)CC1 [1,1'-bicyclohexyl]	890 ± 10
